Experimental data: US20050203059A1, “Methods and compositions for treatment of ischemia” (priority 2002, published 2005)
pEC50: −log10 of the molar value.

Key:
GSK3 = assay: Cell-based glycogen synthase assay for GSK3 inhibitory activity (CHO-HIRC cells); conditions: read-out: EC50 (glycogen synthase activity stimulated to 50% of the maximal level), 20 minutes incubation
Protocol: Likewise, the ability of GSK3 inhibitor compounds to potentiate insulin signaling by activating glycogen synthase can be readily ascertained using a cell-based glycogen synthase activity assay. This assay employs cells that respond to insulin stimulation by increasing glycogen synthase activity, such as the CHO-HIRC cell line, which overexpresses wild-type insulin receptor (˜100,000 binding sites/cell). […] The assay can be carried out by incubating serum-starved CHO-HIRC cells in the presence of various concentrations of compounds of the present invention in the medium, followed by cell lysis at the end of the incubation period. […] The concentration of candidate GSK3 inhibitor that increased glycogen synthase activity to half of its maximal level (i.e., the EC50) can be calculated by fitting a four parameter sigmoidal curve using routine curve fitting methods that are well known to those having ordinary skill in the art.
CHO-HIRC cells are maintained in 10 cm tissue culture plates in Ham's F12 medium/10% dialyzed fetal bovine serum. Cells from a confluent 10 cm plate are harvested and divided into the 6 wells of a 6-well tissue culture plate to a final volume of 2 ml of medium. The cells are left to grow at 37° C. for 24 hours. The cells are then washed three times in Ham's F12 medium containing no fetal bovine serum, and finally the cells are left for a further 24 hours at 37° C. in 2 ml of the serum-free medium.
At the end of this time, 20 μl of compound dissolved in DMSO is added to each well and incubated at 37° C. After 20 minutes the medium is removed and the cells are washed once in PBS at room temperature and then rapidly frozen in the plates in liquid nitrogen. […] Cells are scraped from the plates and frozen in Eppendorf tubes on dry ice. Lysates are then thawed and refrozen on dry ice.
After rethawing, lysates are spun at 14,000 g for 15 minutes. The supernatants are then removed and stored on ice. […] Reactions are incubated at 30° C. for 30 minutes and then spotted onto a 2 cm square 31ET chromatograph paper (Whatman).
Filters are added to 5 ml of liquid scintillant and counted in a liquid scintillation counter. The percentage of the total glycogen synthase that is active in any lysate is expressed as 100× (cpm minus glucose-6-phosphate)/(cpm plus glucose-6-phosphate). Such values are determined in duplicate for 5 different concentrations of compound and for DMSO alone, and the values are then plotted against the logarithm of the concentration. The concentration of compound which stimulates glycogen synthase activity to 50% of the maximal level is determined by fitting a sigmoidal curve to the plotted data. The maximal level is defined as that level to which glycogen synthase activity tends asymtotically as the concentration of test compound increases substantially beyond the EC50.

rat hippocampi cells = assay: GSK3 inhibitor protection of rat hippocampi cells from glutamate induced damage (Trypan Blue count); type: cell-based; parameters: Cells Surviving (%) Without Glutamate (control): concentration or dose not given beside the values; conditions: rat hippocampal neurons, average of 1 to 4 replications; for Cells Surviving (%) With Glutamate: 200 μM glutamic acid for 5 minutes, counted 20 to 24 hours later; for Cells Surviving (%) Without Glutamate (control): not exposed to glutamic acid
Protocol: Hippocampi were dissected from embryonic day 18-19 rats. The tissue was collected in Hibernate™ media (Gibco BRL) and minced into 1 mm pieces. The tissue was dissociated using the Papain Dissociation System (Worthington Biochemical Corporation). Following isolation the cells were suspended in serum-free media composed of Neurobasal™ (Gibco BRL), 2% B27 supplement (Gibco BRL), L-glutamine and antibiotics. Cells were plated in 12 well plates tissue culture dishes coated with poly-L-lysine at a concentration of 7.5×10^4 cells per well. Following 10-14 days at 37° C. in 5% CO2, the GSK3 inhibitor compounds set forth below were added. Four to eight hours following compound addition, the conditioned media was removed from the cells and the cultures were stored at 37° C. […] The cultures were then either exposed for 5-minutes at room temperature to 200 μM glutamic acid in the same HBSS, or not exposed to glutamic acid as a control. Following exposure, the cultures were rinsed three times with the buffer and then returned to their original conditioned media containing the GSK3 inhibitor compounds. Twenty to 24 hours following glutamic acid exposure, the cultures were rinsed in HBSS and exposed for 10 minutes to Trypan Blue. This dye is taken up by dead cells. The cultures were rinsed then fixed for 30 minutes in 4% paraformaldehyde. The number of live and dead (blue) large neurons are counted (at least 200 cells from each well) by phase contrast microscopy and photographed, and the percentage of surviving cells was determined. […] The results are shown in the following Table 2 as the average of 1 to 4 replications: […]

[1] = Blood brain barrier penetration / plasma drug levels after intravenous dosing in CD rats; type: in vivo, rat; conditions: 10 mg/kg intravenously; for Brain (at end of study) drug level: brains isolated at 150 minutes post administration; for AUC / Cmax / Tmax / half-life / Vd / concentration at 0 min / concentration at 7 min / concentration at 20 min / concentration at 40 min / concentration at 70 min / concentration at 100 min / concentration at 150 min: rat, plasma, iv; for Vd: read-out: Vss
Protocol: GSK3 inhibitor blood brain barrier penetration may generally be measured by administering a GSK3 inhibitor compound formulated in 15% captisol/20 mM sodium citrate to a final dose of 10 mg/kg intravenously through a jugular catheter into 250 g CD rats. At 150 minutes post administration brains from the rats were isolated and fast frozen. GSK3 inhibitor plasma levels in the isolated material were established using standard techniques.

Molecule | pEC50 (GSK3) | Cells Surviving (%) With Glutamate (rat hippocampi cells) [%] | Cells Surviving (%) Without Glutamate (control) (rat hippocampi cells) [%] | further results
Nc1nc(NCCNc2ncc(-n3ccnc3)c(-c3ccc(Cl)cc3Cl)n2)ccc1[N+](=O)[O-] [Y] | 7.12 | 61 | 94 | –
CN1CCN(c2cnc(NCCNc3ccc([N+](=O)[O-])c(N)n3)nc2-c2ccc(Cl)cc2Cl)CC1 [N] | 7.27 | 67 | 91 | –
O=[N+]([O-])c1ccc(NCCNc2ccc(-c3ncc[nH]3)c(-c3ccc(Cl)cc3Cl)n2)nc1 [H] | 6.92 | 67 | 94 | –
Nc1nc(NCCNc2ncc(N3CCOCC3)c(-c3ccc(Cl)cc3Cl)n2)ccc1[N+](=O)[O-] [U] | 7.13 | 62 | 93 | –
O=[N+]([O-])c1ccc(NCCNc2ncc(-c3ncc[nH]3)c(-c3ccc(Cl)cc3Cl)n2)nc1 [J] | 6.43 | 57 | 95 | –
N#Cc1ccc(-c2nc(NCCNc3ccc([N+](=O)[O-])cn3)ncc2-n2ccnc2)cc1 [T] | 5.89 | 50 | 95 | –
Nc1nc(NCCNc2ncc(-c3ncc[nH]3)c(-c3ccc(F)cc3Br)n2)ccc1[N+](=O)[O-] [Compound S] | 6.66 | 50 | 95 | –
Nc1nc(NCCNc2ncc(N3C(=O)CCC3=O)c(-c3ccc(Cl)cc3Cl)n2)ccc1[N+](=O)[O-] [M] | 7.07 | 61 | 87 | –
FC(F)(F)c1ccc(NCCNc2ncc(-c3ncc[nH]3)c(-c3ccc(Cl)cc3Cl)n2)nc1 [V] | 5.91 | 49 | 94 | –
Nc1nc(NCCNc2ncc(-c3ncc[nH]3)c(-c3ccc(F)cc3Cl)n2)ccc1[N+](=O)[O-] [X] | 6.37 | 50 | 93 | –
Cc1ccc(-c2nc(NCCNc3ccc([N+](=O)[O-])c(N)n3)ncc2-c2ncc[nH]2)c(Br)c1 [G] | 7.28 | 65 | 94 | CL [1]: 52 [ml/min]/kg; Brain (at end of study) drug level [1]: <LOQ; AUC [1]: 3180 ng·h/mL; Cmax [1]: 4600 ng/mL; Tmax [1]: ~0 h; half-life [1]: 31 min; Vd [1]: 2.3 L/kg; concentration at 0 min [1]: < 20 ng/mL; concentration at 7 min [1]: 4050 ng/mL; concentration at 20 min [1]: 3200 ng/mL; concentration at 40 min [1]: 1330 ng/mL; concentration at 70 min [1]: 796 ng/mL; concentration at 100 min [1]: 414 ng/mL; concentration at 150 min [1]: 113 ng/mL
Nc1nc(NCCNc2ncc(-n3cccn3)c(-c3ccc(Cl)cc3Cl)n2)ccc1[N+](=O)[O-] [W] | 7.00 | 61 | 94 | –
CN(CCNc1ccc([N+](=O)[O-])c(N)n1)c1ncc(-c2ncc[nH]2)c(-c2ccc(Cl)cc2Cl)n1 [Q] | 7.77 | 67 | 95 | –
IGF1: IGF1, used as a control in the rat hippocampi cell survival test | – | 51 | 93 | –
Nc1nc(NCCNc2ncc(-c3ncc[nH]3)c(-c3ccc(Cl)cc3Cl)n2)ccc1[N+](=O)[O-] [L] | 6.59 | 59 | 90 | –
Nc1nc(NCCNc2ncc(CO)c(-c3ccc(Cl)cc3Cl)n2)ccc1[N+](=O)[O-] [K] | 6.83 | 73 | 86 | –
Nc1nc(NCCNc2ncc(-n3cc(Cl)ccc3=O)c(-c3ccc(Cl)cc3Cl)n2)ccc1[N+](=O)[O-] [O] | 6.88 | 61 | 94 | –
Nc1nc(NCCNc2ncc(-n3ccccc3=O)c(-c3ccc(Cl)cc3Cl)n2)ccc1[N+](=O)[O-] [R] | 7.85 | 61 | 92 | –
Nc1nc(NCCNc2ncc(NC(=O)NCCN3CCOCC3)c(-c3ccc(Cl)cc3Cl)n2)ccc1[N+](=O)[O-] [D] | 5.52 | 60 | 96 | –
CNCC(=O)Nc1cnc(NCCNc2ccc([N+](=O)[O-])c(N)n2)nc1-c1ccc(Cl)cc1Cl [P] | 6.15 | 55 | 91 | –
FC(F)(F)c1ccc(NCCNc2ccc(-c3ncc[nH]3)c(-c3ccc(Cl)cc3Cl)n2)nc1 [F] | – | 51 | 96 | –
N#Cc1ccc(NCCNc2ncc(-c3ccncc3)c(-c3ccc(Cl)cc3Cl)n2)nc1 [I] | 6.74 | 56 | 94 | CL [1]: 114 [ml/min]/kg; Brain (at end of study) drug level [1]: <LOQ; AUC [1]: 145 ng·h/mL; Cmax [1]: 1200 ng/mL; Tmax [1]: ~0 h; half-life [1]: 42 min; Vd [1]: 6.8 L/kg; concentration at 0 min [1]: < 20 ng/mL; concentration at 7 min [1]: 1190 ng/mL; concentration at 20 min [1]: 1160 ng/mL; concentration at 40 min [1]: 614 ng/mL; concentration at 70 min [1]: 440 ng/mL; concentration at 100 min [1]: 358 ng/mL; concentration at 150 min [1]: 106 ng/mL
COCCNC(=O)Cn1c(=O)n(C2CCN(C(=O)N3CCc4ccccc4C3)CC2)c2ccccc21 [E] | – | 73 | 88 | –
